Test in all cases: Test A postemergence
Assay type in all cases: in vivo

Assay [1] concerns ryegrass, Italian (Italian ryegrass, Lolium multiflorum). To be noted: Lolium multiflorum, post-emergence, 240 h; for pest or weed control at 125 g/ha: 125 g ai/ha; for pest or weed control at 500 g/ha: 500 g ai/ha. Put shortly: (§1)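 Preemergence soil spray on seeded pots or post-emergence spray on 1–2 leaf plants, in loam–sand blend. Greenhouse ~10 d. Visual rating 0–100 against untreated plants.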

In the next assay the test system is corn (Zea mays). Particulars: Zea mays, post-emergence, 240 h; for plant injury at 125 g/ha / Corn plant response rating (crop injury, 0 = no effect, 100 = complete kill) at 125 g/ha: 125 g ai/ha; for plant injury at 500 g/ha: 0 to 100 scale, 0 is no effect, 100 is complete control, read-out: Corn plant response rating; for Corn plant response rating (crop injury, 0 = no effect, 100 = complete kill) at 125 g/ha: visual injury after approximately 10 d. Put shortly:
as §1

Assay [2] deals with ragweed (common ragweed, Ambrosia elatior). Particulars: Ambrosia artemisiifolia, post-emergence, 240 h; for pest or weed control at 125 g/ha: 125 g ai/ha; for pest or weed control at 500 g/ha: 500 g ai/ha. An outline of the steps: as §1
The subject of assay [3] is blackgrass (Alopecurus myosuroides). To be noted: Alopecurus myosuroides, post-emergence, 240 h; for pest or weed control at 125 g/ha: 125 g ai/ha; for pest or weed control at 500 g/ha: 500 g ai/ha. Put shortly:
as §1

Assay [4] concerns barnyardgrass (Echinochloa crus-galli). Particulars: Echinochloa crus-galli, post-emergence, 240 h; for pest or weed control at 125 g/ha: 125 g ai/ha; for pest or weed control at 500 g/ha: 500 g ai/ha. Put shortly:
as §1

Setting [5] is: postemergence, visual injury vs untreated controls after approx. 10 d, 0 = no effect, 100 = complete control, read-out: Ryegrass, Italian plant response rating (0 to 100 scale).
The mark [6] stands for this setting: postemergence, 0 to 100 scale, 0 is no effect, 100 is complete control, read-out: Ryegrass, Italian plant response rating.
Setting [7] is: postemergence, visual injury vs untreated controls after approx. 10 d, 0 = no effect, 100 = complete control, read-out: Corn plant response rating (0 to 100 scale).
The mark [8] stands for this setting: postemergence, visual injury vs untreated controls after approx. 10 d, 0 = no effect, 100 = complete control, read-out: Ragweed plant response rating (0 to 100 scale).
[9] abbreviates: postemergence, 0 to 100 scale, 0 is no effect, 100 is complete control, read-out: Ragweed plant response rating.
[10] abbreviates: postemergence, visual injury vs untreated controls after approx. 10 d, 0 = no effect, 100 = complete control, read-out: Blackgrass plant response rating (0 to 100 scale).
[11] abbreviates: postemergence, 0 to 100 scale, 0 is no effect, 100 is complete control, read-out: Blackgrass plant response rating.
Where [12] appears, read: postemergence, visual injury vs untreated controls after approx. 10 d, 0 = no effect, 100 = complete control, read-out: Barnyardgrass plant response rating (0 to 100 scale).
Setting [13] is: postemergence, 0 to 100 scale, 0 is no effect, 100 is complete control, read-out: Barnyardgrass plant response rating.
Setting [14] is: postemergence, visual injury after approximately 10 d, 0 to 100 scale (0 no effect, 100 complete control), read-out: Plant response rating, Ryegrass, Italian.
Setting [15] is: postemergence, 0 to 100 scale (0 no effect, 100 complete control).
Where [16] appears, read: postemergence, visual injury after approximately 10 d, 0 to 100 scale (0 no effect, 100 complete control), read-out: Plant response rating, Ragweed.
The mark [17] stands for this setting: postemergence, visual injury after approximately 10 d, 0 to 100 scale (0 no effect, 100 complete control), read-out: Plant response rating, Blackgrass.
Where [18] appears, read: postemergence, visual injury after approximately 10 d, 0 to 100 scale (0 no effect, 100 complete control), read-out: Plant response rating, Barnyardgrass.

This note sets out measurements from patent US12077503B2, “Substituted cyclic amides and their use as herbicides” (FMC CORPORATION, priority 2015, dated 2024).

Each structure is given as a SMILES string. Read-outs that look alike come from different tables or passages of the source.

Turning to `N#Cc1ccc([C@H]2CNC(=O)[C@@H]2C(=O)Nc2cccc(F)c2F)cc1` [Compound 1206], the pest or weed control at 125 g/ha in assay [1] (setting [5]) stood at 0%; in assay [2] (setting [8]), 0%; in assay [3] (setting [10]), 0%; in assay [4] (setting [12]) it was 70%. Further, the pest or weed control at 500 g/ha in assay [1] (setting [6]) was 0%; in assay [2] (setting [9]), 0%; in assay [3] (setting [11]), 0%; in assay [4] (setting [13]), 100%. In addition, in the assay with corn (Zea mays) (setting [7]), the plant injury at 125 g/ha worked out at 0%. Also, the plant injury at 500 g/ha in the assay with corn (Zea mays) (500 g ai/ha, postemergence) came to 0%.

For `CSc1ccccc1NC(=O)[C@H]1C(=O)NC[C@@H]1c1cc(C)cc(F)c1` [Compound 1306], the pest or weed control at 125 g/ha in assay [1] (Postemergence, visual rating about 10 d after treatment, read-out: Ryegrass, Italian plant response rating (0 to 100 scale)) came to 0%; in assay [2] (Postemergence, visual rating about 10 d after treatment, read-out: Ragweed plant response rating (0 to 100 scale)) it was 0%; in assay [3] (Postemergence, visual rating about 10 d after treatment, read-out: Blackgrass plant response rating (0 to 100 scale)) it was 0%; in assay [4] (Postemergence, visual rating about 10 d after treatment, read-out: Barnyardgrass plant response rating (0 to 100 scale, 0 no effect, 100 complete control)) it was 20%. For the same compound, the pest or weed control at 500 g/ha in assay [1] (Postemergence, visual injury, 0 to 100 scale (0 no effect, 100 complete control), approx. 10 d, read-out: Plant response rating, Ryegrass, Italian) came out at 0%; in assay [2] (Postemergence, visual injury, 0 to 100 scale (0 no effect, 100 complete control), approx. 10 d, read-out: Plant response rating, Ragweed) it was 0%; in assay [3] (Postemergence, visual injury, 0 to 100 scale (0 no effect, 100 complete control), approx. 10 d, read-out: Plant response rating, Blackgrass), 0%; in assay [4] (Postemergence, visual injury, 0 to 100 scale (0 no effect, 100 complete control), approx. 10 d, read-out: Plant response rating, Barnyardgrass), 90%. In the assay with corn (Zea mays) (Postemergence, visual rating about 10 d after treatment, read-out: Corn plant response rating (0 to 100 scale)), the plant injury at 125 g/ha came out at 0%. For the same compound, in the assay on corn (Zea mays) (Postemergence, 500 g ai/ha, visual injury, 0 to 100 scale (0 no effect, 100 complete control), approx. 10 d), the Corn plant response rating (crop injury, 0 = no effect, 100 = complete kill) at 500 g/ha was 0%.

As to `O=C(Nc1cccc(Cl)c1F)[C@H]1C(=O)N(C2CC2)CC[C@@H]1c1cccc(C(F)(F)F)c1` [Compound 926], the pest or weed control at 125 g/ha in assay [1] (Postemergence, visual injury after approximately 10 d, 0 to 100 scale where 0 is no effect and 100 is complete control, read-out: Plant response rating, Ryegrass, Italian) came to 0%; in assay [2] (Postemergence, visual injury after approximately 10 d, 0 to 100 scale where 0 is no effect and 100 is complete control, read-out: Plant response rating, Ragweed) it was 0%; in assay [3] (Postemergence, visual injury after approximately 10 d, 0 to 100 scale where 0 is no effect and 100 is complete control, read-out: Plant response rating, Blackgrass), 0%; in assay [4] (Postemergence, visual injury after approximately 10 d, 0 to 100 scale where 0 is no effect and 100 is complete control, read-out: Plant response rating, Barnyardgrass), 40%. For the same compound, the Corn plant response rating (crop injury, 0 = no effect, 100 = complete kill) at 125 g/ha in the assay on corn (Zea mays) (Postemergence, 0 to 100 scale where 0 is no effect and 100 is complete control) worked out at 0%.

Take `Cc1ccc([C@H]2CCN(C)C(=O)[C@@H]2C(=O)Nc2ccccc2C(F)(F)F)cc1` [Compound 1219]: the pest or weed control at 125 g/ha in assay [1] (setting [5]) was found to be 0%; in assay [2] (setting [8]), 0%; in assay [3] (setting [10]) it was 0%; in assay [4] (setting [12]) it was 30%. The pest or weed control at 500 g/ha turned out to be 20% in assay [1] (setting [6]), 20% in assay [2] (setting [9]), 0% in assay [3] (setting [11]) and 60% in assay [4] (setting [13]). Further, in the assay on corn (Zea mays) (setting [7]), the plant injury at 125 g/ha is 0%. The plant injury at 500 g/ha in the assay with corn (Zea mays) (500 g ai/ha, postemergence) turned out to be 0%.

Take `O=C1NC[C@H](c2ccc(C(F)(F)F)cc2)C1C(=O)Nc1c(F)cccc1CO` (stereo partly shown) [Compound 1243]: the pest or weed control at 125 g/ha in assay [1] (setting [5]), in assay [2] (setting [8]), in assay [3] (setting [10]) and in assay [4] (setting [12]) was 0% each time. Moreover, the pest or weed control at 500 g/ha in assay [1] (setting [6]), in assay [2] (setting [9]), in assay [3] (setting [11]) and in assay [4] (setting [13]) was 0% throughout. Moreover, in the assay with corn (Zea mays) (setting [7]), the plant injury at 125 g/ha amounted to 0%. In addition, the plant injury at 500 g/ha in the assay with corn (Zea mays) (500 g ai/ha, postemergence) is 0%.

For `CN1C[C@H](c2cc(F)c(C(F)(F)F)c(F)c2)[C@@H](C(=O)Nc2ccccc2F)C1=O` [Compound 899], the pest or weed control at 125 g/ha in assay [1] (postemergence, visual injury rating after approximately 10 d, read-out: Ryegrass, Italian plant response rating (0 to 100 scale, 0 no effect, 100 complete control)) turned out to be 30%; in assay [2] (postemergence, visual injury rating after approximately 10 d, read-out: Ragweed plant response rating (0 to 100 scale, 0 no effect, 100 complete control)) it was 20%; in assay [3] (postemergence, visual injury rating after approximately 10 d, read-out: Blackgrass plant response rating (0 to 100 scale, 0 no effect, 100 complete control)), 40%; in assay [4] (postemergence, visual injury rating after approximately 10 d, read-out: Barnyardgrass plant response rating (0 to 100 scale, 0 no effect, 100 complete control)) it was 80%. Further, the plant injury at 125 g/ha in the assay on corn (Zea mays) (postemergence, visual injury rating after approximately 10 d, read-out: Corn plant response rating (0 to 100 scale, 0 no effect, 100 complete control)) came to 40%.

Regarding `O=C1NC[C@H](c2cccc3c2OC(F)(F)O3)[C@H]1C(=O)Nc1ccccc1F` [Compound 754], the pest or weed control at 125 g/ha in assay [1] (setting [14]) was found to be 0%; in assay [2] (setting [16]) it was 0%; in assay [3] (setting [17]), 0%; in assay [4] (setting [18]), 60%. Also, the Corn plant response rating (crop injury, 0 = no effect, 100 = complete kill) at 125 g/ha in the assay on corn (Zea mays) (setting [15]) is 0%.

`O=C1NC[C@H](c2ccc(C(F)(F)F)cc2)[C@H]1C(=O)Nc1ccccc1C1CC1` [Compound 746]: the pest or weed control at 125 g/ha is 0% in assay [1] (setting [14]), 0% in assay [2] (setting [16]), 20% in assay [3] (setting [17]) and 20% in assay [4] (setting [18]). The Corn plant response rating (crop injury, 0 = no effect, 100 = complete kill) at 125 g/ha in the assay on corn (Zea mays) (setting [15]) worked out at 0%.

Take `CC(F)(F)c1cccc([C@H]2CNC(=O)[C@@H]2C(=O)Nc2ccc(F)cc2F)c1` [Compound 781]: the pest or weed control at 125 g/ha in assay [1] (setting [14]) is 20%; in assay [2] (setting [16]) it was 0%; in assay [3] (setting [17]), 70%; in assay [4] (setting [18]), 90%. The compound also registered a Corn plant response rating (crop injury, 0 = no effect, 100 = complete kill) at 125 g/ha with corn (Zea mays) (setting [15]) of 60%.

Consider `CCc1cc(CC)cc([C@H]2CN(C)C(=O)[C@@H]2C(=O)Nc2ccccc2C(F)(F)F)c1` [Compound 737], for which the pest or weed control at 125 g/ha in assay [1] (setting [14]) stood at 50%; in assay [2] (setting [16]), 0%; in assay [3] (setting [17]), 30%; in assay [4] (setting [18]), 40%. In the assay on corn (Zea mays) (setting [15]), this compound registered a Corn plant response rating (crop injury, 0 = no effect, 100 = complete kill) at 125 g/ha of 40%.
